Experimental findings from patent publication US7235577B1 (priority 2000, dated 2007) are described below.

One data set addresses CYP3A4 (Homo sapiens, UniProt P08684). Put plainly: in vitro. Conditions: human. Here is the method: The test substances shown in Table 8 were evaluated for their inhibitory effect on the catalytic activity of human cytochrome P450 enzyme. Cytochrome P450 3A4 (CYP3A4) is involved in many drug-drug interactions and in many other pathways in the body including the catabolism of steroids and xenobiotics. Inhibition of this enzyme was measured in 96 well plates with 7-benzyloxy-4-trifluoro-methylcoumarin (BFC) as the substrate and cDNA-derived enzymes in microsomes prepared from baculovirus-infected insect cells.
The inhibition study consisted of the determination of inhibition by the test substance on CYP3A4 catalytic activity. […] The compounds were prepared as 10 mM stock solutions in acetonitrile. Metabolism of the model substrate was assayed by the production of 7-hydroxy-4-trifluoromethylcoumarin metabolite. The metabolite was detected by fluorescence.
Table 10 below provides a list of the name of enzymes examined, the catalog number of the microsomes used as a source of the enzyme, the concentration of the model substrate used, the amount of enzyme used, the final buffer concentration, and the positive control compound.
Assays were conducted in 96 well microtiter plates. The BFC substrate was initially prepared in acetonitrile. […] Six wells were used for one test. […] For the positive controls, 12 wells in a row were used for one test. The positive control inhibitor/enzyme combination was examined in duplicate rows. Wells 1 to 8 contained serial 1:3 dilutions of the inhibitors. The highest inhibitor concentration were as described in the table above. Wells 9 and 10 contained no inhibitor and wells 11 and 12 were blanks for background fluorescence (stop solution added before the enzyme).
After buffer, cofactors and inhibitor addition, the plates were pre-warmed to 37° C. Incubations were initiated by the addition of pre-warmed enzyme and substrate. The final cofactor concentrations were 1.3 mM NADP, 3.3 mM glucose-6-phosphate and 0.4 U/ml glucose-6-phosphate dehydrogenase. The final incubation volume was 0.2 ml. Incubations were carried out for 30 minutes [CYP3A4 (BFC)] and stopped by the addition of 0.075 ml of 80% acetonitrile-20% 0.5M Tris. Fluorescence per well was measured using a BMG FLUOstar fluorescence plate reader. The BFC metabolite 7-hydroxy-4-trifluoromethyl-coumarin was measured using an excitation wavelength of 410 nm and emission wavelength of 538 nm.

The test system of another data set is COS-7 chloride channel. Nature of the data set: Selectivity patch clamp, native chloride channels in COS-7 cells. It is filed as cell-based, African green monkey. Conditions: native chloride channel of COS-7 cells. Here is the method:
(§1) Electrophysiological experiments were carried out in the whole-cell configuration of the patch-clamp technique using an EPC-9 amplifier (HEKA Elektronik, Lambrecht Germany) interfaced to a computer running acquisition and analysis software (Pulse and Pulsfit; HEKA Elektronik). Pipettes were pulled from soft glass capillaries, coated with Sylgard (Dow-Corning, Midland, Mich.), and fire polished to resistances of 2.0–4.5 MΩ measured in the bath. COS-7 cells were trypsinized and plated on glass coverslips 3 h before measurement. […] To prevent activation of the native chloride channels in COS-7 cells an aspartate Ringer solution was used as an external solution (160 mM Na^+ aspartate, 4.5 mM KCl, 2 mM CaCl2, 1 mM MgCl2, 5 mM HEPES, adjusted to pH 7.4 with NaOH, with an osmolarity of 290–310 mosM). 200 ms voltage ramps from −120 mV to 40 mV every 10 s were used. The holding potential in all experiments was −80 mV. Series resistance compensation was not employed. The reduction of slope conductance at −80 mV was used to determine the Kd-value by fitting the values to the Hill equation with a Hill coefficient of unity.
Recordings from the Jurkat SKCa channel were made in K^+ aspartate Ringer (Na^+ was replaced by K^+) with the same internal pipette solution. […]
On the technique in general: In patch-clamp work, channel activity is measured electrically.

Data set [1] in a line: Hydrolytic stability by HPLC. Conditions: pH 5.0, 37° C. Here is the method: A Waters 590 liquid chromatograph with a Waters 746 integrator and a Waters 486 UVN is detector, and a 25 cm Lichrospher RP18 column (5-μM particle size) was used. The mobile phase consisted of K2HPO4 25 mM, KH2PO4 30 mM, methanol at 262:13:725. The chromatographic separation was performed at 20° C. with a flow rate of 1.0 ml/min, the absorbance of the elluent was monitored at 210 nm.
Hydrolysis profiles (10 μM compound with 20% acetonitrile) were carried out in Soerensen phosphate buffer (pH 7.4 and pH 5.0) in a total volume of 10 ml. 100 μl samples were collected 0, 1, 2, 3, 4, 5, 24, 48 and 72 hours after incubation, with shaking, in a waterbath at 37° C. and manually injected into the HPLC over Rheodyne 7125 system. For profiles at pH 1.0 artificial stomach fluid (DAB 9), containing 2 g NaCl, 3,2 g pepsin and 80 ml 1 M HCL in 1.0 L of water was used. After 0, 1 and 2 hours 400 μl of sample were collected and extracted three times with 500 μl of ethyl ether by vortexing. The combined extracts were than evaporated to dryness by passing nitrogen through the solution. The residue was than dissolved in 400 μl of mobile phase of which […] were injected in the HPLC.

Another data set addresses human IKCa1 channel (Homo sapiens, UniProt O15554). Nature of the data set: cell-based. Here is the method: COS-7 cells, maintained in Dulbecco's modified Eagle's medium (DMEM) containing 10% heat-inactivated fetal calf serum, 4 mM L-glutamine and 1 mM Na^+ pyruvate, were transiently transfected with hlKCa1.
as §1

Sequence of CYP3A4 (P08684 whole entry): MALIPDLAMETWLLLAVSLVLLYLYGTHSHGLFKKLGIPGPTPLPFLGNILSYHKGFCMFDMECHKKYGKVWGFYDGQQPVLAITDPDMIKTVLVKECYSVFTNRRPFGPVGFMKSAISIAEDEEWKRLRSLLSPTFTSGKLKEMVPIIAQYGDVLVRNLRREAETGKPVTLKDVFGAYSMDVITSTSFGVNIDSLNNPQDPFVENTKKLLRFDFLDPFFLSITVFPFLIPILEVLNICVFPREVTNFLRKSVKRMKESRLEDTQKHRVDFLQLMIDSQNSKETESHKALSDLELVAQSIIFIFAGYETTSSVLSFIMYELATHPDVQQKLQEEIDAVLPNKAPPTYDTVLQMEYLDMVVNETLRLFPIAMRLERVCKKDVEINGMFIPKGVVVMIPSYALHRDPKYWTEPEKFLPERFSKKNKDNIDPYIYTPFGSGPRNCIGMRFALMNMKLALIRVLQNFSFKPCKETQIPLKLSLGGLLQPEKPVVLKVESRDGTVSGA
Sequence of human IKCa1 channel (O15554 whole entry): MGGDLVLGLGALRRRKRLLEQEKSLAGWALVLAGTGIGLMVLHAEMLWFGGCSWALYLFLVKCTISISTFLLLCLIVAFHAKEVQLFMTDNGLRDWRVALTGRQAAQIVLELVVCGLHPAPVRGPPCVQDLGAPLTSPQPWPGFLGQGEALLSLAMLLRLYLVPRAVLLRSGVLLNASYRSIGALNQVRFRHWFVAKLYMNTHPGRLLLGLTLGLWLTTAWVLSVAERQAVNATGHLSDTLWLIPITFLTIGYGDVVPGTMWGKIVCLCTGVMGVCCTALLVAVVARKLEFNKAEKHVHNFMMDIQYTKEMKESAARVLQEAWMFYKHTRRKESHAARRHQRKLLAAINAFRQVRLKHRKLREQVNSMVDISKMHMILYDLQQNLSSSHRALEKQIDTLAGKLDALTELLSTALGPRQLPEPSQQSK

In the case of `Clc1ccccc1C(c1ccccc1)(c1ccccc1)n1ccnc1` [Clotrimazole, reference compound], the inhibition at 30 min, 0.1 μM on CYP3A4 worked out at 99%. In addition, in the data set on COS-7 chloride channel, the “Block of COS-7 (Cl)” value is reported as “no effect at 10 μM (n =”. Moreover, the “hydrolysis: % T3 formed” value was 22% in data set [1] (after 48 h) and 35% in data set [1] (after 72 h).

With `OC(c1ccccc1)(c1ccccc1)c1ccccc1Cl` [Compound T3, (2-Chlorophenyl)diphenyl methanol], the melting point amounted to 91 °C. Also, the inhibition at 30 min, 10 μM at CYP3A4 was -30.5%. In addition, the dissociation constant Kd on human IKCa1 channel turned out to be 520 nM.

`N#CC(c1ccccc1)(c1ccccc1)c1ccccc1F` [Compound T40, 2-(2-Fluorophenyl)2,2-diphenylacetonitrile] came in with a melting point of 144 °C. Moreover, the inhibition at 30 min, 10 μM at CYP3A4 was determined as 9%. At human IKCa1 channel, the Kd was determined as 60 nM. Moreover, the “IKCa1 inhibition compared with clotrimazole” value at human IKCa1 channel (refers to TABLE 8) is given as “more potent inhibitors of IKCa1 channels than clotrimazole”.

As to `Clc1ccccc1C(Nc1nccs1)(c1ccccc1)c1ccccc1` [Compound T66, N-[(2-Chlorophenyl)diphenylmethyl]-N-(1,3-thiazol-2yl)amine], the inhibition at 30 min, 10 μM on CYP3A4 came to 86.5%. On human IKCa1 channel, this molecule displayed a Kd of 15000 nM.

As usually defined, the inhibition is the drop in the measured response relative to a control, in per cent. As usually defined, the melting point is the temperature, or range, at which the solid turns liquid. For orientation: Kd means the concentration at which binding is half-saturated.
